Measured values as given in PMC12153294 (mBio, 2025).
“And” between values parts separate entries of the source, which are not always exact repeats. Equal values may be shown once. Read-outs that look alike come from different tables or passages of the source.

Legend:
SARS-CoV-2 Mac1 [1] = molecular target: T1, SARS-CoV-2 Mac1 (Severe acute respiratory syndrome coronavirus 2, UniProt P0DTD1); test: biochemical; settings: inhibition of Mac1 binding to ADP-ribosylated peptide; average of 2 independent experiments; read-out: Mac1 IC50 (AlphaScreen assay)
[2] = AlphaScreen counter screen with Bn-His6 control peptide; settings: same figure table as Mac1 IC50 (μM), NI not defined; for IC50: Bn-His peptide control, unit inferred
Method: The AlphaScreen reactions were carried out in 384-well plates (Alphaplate, PerkinElmer, Waltham, MA) in a total volume of 40 µL in buffer containing 25 mM HEPES (pH 7.4), 100 mM NaCl, 0.5 mM TCEP, 0.1% BSA, and 0.05% CHAPS. All reagents were prepared as 4× stocks, and 10 µL of each reagent was added to a final volume of 40 µL. All compounds were transferred acoustically using ECHO 555 (Beckman Inc) and preincubated after mixing with purified His-tagged macrodomain protein (250 nM) for 30 min at RT, followed by the addition of a 10 amino acid biotinylated and ADP-ribosylated peptide [ARTK(Bio) QTARK (Aoa-RADP)S] (Cambridge peptides) (625 nM). After 1 h incubation at RT, streptavidin-coated donor beads (7.5 µg/mL) and nickel chelate acceptor beads (7.5 µg/mL) (PerkinElmer AlphaScreen Histidine Detection Kit) were added under low light conditions, and plates were shaken at 400 rpm for 60 min at RT protected from light. Plates were kept covered and protected from light at all steps and read on the BioTek plate reader using an AlphaScreen 680 excitation/570 emission filter set. For counter screening of the compounds, 25 nM biotinylated and hexahistidine-tagged linker peptide (Bn-His6) (PerkinElmer) was added to the compounds, followed by the addition of beads as described above. For data analysis, the percent inhibition was normalized to positive (DMSO+ labeled peptide) and negative (DMSO + macrodomain + peptide, no ADPr) controls. The IC50 values were calculated via four-parametric non-linear regression analysis, constraining bottom (=0), top (=100), & Hillslope (=1) for all curves.

SARS-CoV-2 Mac1 [3] = molecular target: T1, SARS-CoV-2 Mac1; test: Differential scanning fluorimetry (DSF) thermal shift assay; type: binding; settings: thermal stability of SARS-CoV-2 Mac1, increasing compound concentrations
Method: Thermal shift assay with DSF involved the use of LightCycler 480 Instrument (Roche Diagnostics). In total, a 15 µL mixture containing 8 × SYPRO Orange (Invitrogen) and 10 µM macrodomain protein in buffer containing 20 mM HEPES-NaOH, pH 7.5, and various concentrations of ADP-ribose or hit compounds was mixed on ice in a 384-well PCR plate (Roche). Fluorescent signals were measured from 25 to 95°C in 0.2°C/30/S steps (excitation, 470–505 nm; detection, 540–700 nm). The main measurements were carried out in triplicate. Data evaluation and Tm determination involved the use of the Roche LightCycler 480 Protein Melting Analysis software, and data fitting calculations involved the use of single-site binding curve analysis on GraphPad Prism. The thermal shift (ΔTm) was calculated by subtracting the Tm values of the DMSO from the Tm values of the compounds.

[4] = LogD determination, shake-flask method; type: physicochemical; settings: octanol/PBS, pH 7.4
Method: In total, 0.11 mg of each compound was weighed out into 2 mL centrifuge tubes; 1 mL of octanol-saturated PBS or 0.1M HCl was added to each centrifuge tube and vortexed to dissolve. Then, 0.5–1.0 mL of the PBS-saturated octanol was added to the 0.5–1.0 mL octanol-saturated PBS supernatant and vortexed. Next, 100 μL of the octanol-saturated PBS phase from each centrifuge tube was added to separate UPLC vials; 100 μL of 50:50 MP H2O:ACN was added to each vial and vortexed. The remaining octanol-saturated PBS layer was removed from the vial using a micropipette and stored in a separate vial, and 100 μL of the PBS-saturated octanol layer from each centrifuge tube was added to separate UPLC vials. In total, 100 μL of 50:50 MP H2O:ACN was added to each vial and vortexed. These procedures were repeated in triplicate and then analyzed by UPLC/UV-VIS.

JHMV-nLuc = type: cell-based, murine hepatitis virus (MHV)
DBT cells = test: Cell viability, MTT assay, DBT cells; type: cell-based; settings: concentrations tested
Method: (§1) Delayed brain tumor (DBT), L929, and Calu3 Cellular metabolic activity was assessed using a CyQUANT MTT cell proliferation assay (Thermo Fisher Scientific) by following the manufacturer’s instructions.

L929 cells = test: Cell viability, MTT assay, L929 cells; type: cell-based; settings: concentrations tested
Method: as §1

Mac1 = settings: cited from earlier work
JHMV [5] = test: microbe, parasite or virus in culture; type: cell-based, murine hepatitis virus (MHV); settings: for Concentration at which infectious virus production was inhibited: lowest effective concentration tested
JHMV [6] = type: cell-based, murine hepatitis virus (MHV); settings: 150 μM
JHMV-WT [7] = test: microbe, parasite or virus in culture; type: cell-based, murine hepatitis virus (MHV); settings: for EC50: Murine coronavirus, read-out: EC50, % JHMV-WT inhibition on DBT cells
JHMV-WT [8] = test: microbe, parasite or virus in culture; type: cell-based, murine hepatitis virus (MHV); settings: for Inhibition of MHV, dose-response: 50 to 200 μM, stated for both DBT and L929 cells, better activity on DBT
[9] = system: SARS-CoV-2 (Wuhan strain); test: microbe, parasite or virus in culture; type: cell-based; settings: for EC50: Severe acute respiratory syndrome coronavirus 2, Calu-3, presence of IFN-γ, estimated from fold reductions, read-out: EC50 against SARS-CoV-2
MERS-CoV = type: cell-based
Calu-3 cells = test: Cell viability, MTT assay, Calu-3 cells; type: cell-based
Method: as §1

[10] = read-out: Reported EC50; cited from earlier work
[11] = Calu-3, IFN-γ pre-treated (100 U), 12.5 μM
[12] = Calu-3, IFN-γ pre-treated (100 U), 25 μM

SMILES | IC50 (SARS-CoV-2 Mac1 [1]) | IC50 [2] | DSF assay ΔTm (SARS-CoV-2 Mac1 [3]) | logD [4] | JHMV-nLuc replication (luciferase activity), words (JHMV-nLuc) | Cell viability (MTT), words (DBT cells) | Cell viability (MTT), words (L929 cells) | EC50 (JHMV-WT [7]) | also measured
O=C(O)C(Cc1c[nH]c2ccccc12)Nc1ncnc2[nH]ccc12 (stereo not shown) [Compound 4a] | 6.1 µM | > 100 µM | 4.32 °C | -0.61 | did not affect JHMV replication | do not impact the viability | do not impact the viability |  | Mac1 enzyme activity (Mac1): inhibited Mac1 enzyme activity
O=C(O)C(Cc1c[nH]c2ccccc12)Nc1ncnc2[nH]ccc12 (stereo not shown) [Compound 4b] | 1.66 µM and < 2 µM | > 100 µM | 4.46 °C |  | did not affect JHMV replication |  |  |  | Bn-His IC50 (AlphaScreen counter screen) ([2]; unit not given): almost no inhibition
COC(=O)[C@H](Cc1c[nH]c2ccccc12)Nc1ncnc2[nH]ccc12 [Compound 5a] | 14.1 µM | > 100 µM | 0.97 °C | 1.5 | inhibited JHMV replication | do not impact the viability | do not impact the viability |  | Concentration at which infectious virus production was inhibited (JHMV [5]): 200 µM; Fold change in PFU/mL, 5a versus DMSO (JHMV [6]; passage 1 (P1)): 3.17 X; Fold change in PFU/mL, 5a versus DMSO (JHMV [6]; passage 2 (P2)): -2.0 X; Fold change in PFU/mL, 5a versus DMSO (JHMV [6]; passage 3 (P3)): -1.1 X
CC(C)OC(=O)[C@H](Cc1c[nH]c2ccccc12)Nc1ncnc2[nH]ccc12 [Compound 5c] | 3.66 µM | 25.5 µM | 0.76 °C | 3.33 | inhibited JHMV replication | do not impact the viability | do not impact the viability | 18.3 µM | Decrease in replication (infectious virus) (JHMV-WT [7]; 50 μM, DBT cells): ~ 1.5 logs; Decrease in replication (infectious virus) (JHMV-WT [8]; 50 μM, L929 cells): ~3 logs; EC50 (JHMV-WT [8]; Murine coronavirus, L929, read-out: EC50, % JHMV-WT inhibition on L929 cells): 20 µM; EC50 (JHMV [5]; Murine coronavirus, 0 to 50 μM on DBT, and 17 Cl-1 cells, read-out: EC50 for inhibition of virus production): 10 to 20 µM; Concentration at which infectious virus production was inhibited (JHMV [5]): 25 µM; Reduction of viral titers [9, 11]: 3 fold; Reduction of viral titers [9, 12]: 7.5 fold; Reduction of viral titers ([9]; Calu-3, absence of IFN-γ, 25 μM): ~ 2 fold; EC50 [9]: ≤ 12.5 µM; MERS-CoV replication (MERS-CoV): did not inhibit MERS-CoV replication; Cell viability (MTT), words (Calu-3 cells): do not impact the viability
O=C(NCc1ccncc1)[C@H](Cc1c[nH]c2ccccc12)Nc1ncnc2[nH]ccc12 [Compound 6a] | 8.37 µM | > 100 µM | 1.29 °C |  |  |  |  |  | 
O=C(NCc1ccnc(Cl)c1)[C@H](Cc1c[nH]c2ccccc12)Nc1ncnc2[nH]ccc12 [Compound 6b] | 7.57 µM | > 100 µM | 1.57 °C |  |  |  |  |  | 
NC(=O)[C@H](Cc1c[nH]c2ccccc12)Nc1ncnc2[nH]ccc12 [Compound 6c] | 4.04 µM | > 100 µM | 3.06 °C |  |  |  |  |  | 
O=C(NCc1ccccn1)[C@H](Cc1c[nH]c2ccccc12)Nc1ncnc2[nH]ccc12 [Compound 6d] | 7.58 µM | 79.2 µM | 1.39 °C |  | inhibited light production from MHV replication in a dose-dependent manner | do not impact the viability | do not impact the viability | 77.1 µM | Inhibition of MHV, dose-response (JHMV-WT [8]): inhibited MHV in a dose-dependent manner
O=C(NCc1ccccn1)[C@@H](Cc1c[nH]c2ccccc12)Nc1ncnc2[nH]ccc12 [Compound 6e] | 4.85 µM | 39.6 µM | 1.17 °C |  | inhibited light production from MHV replication in a dose-dependent manner | do not impact the viability | do not impact the viability | 53.5 µM | Inhibition of MHV, dose-response (JHMV-WT [8]): inhibited MHV in a dose-dependent manner; Reduction of viral titers [9, 11]: 2.7 fold; Reduction of viral titers [9, 12]: 3.8 fold; Infectious virus production ([9]; Calu-3, absence of IFN-γ, 0 to 25 μM): did not reduce infectious virus production; EC50 [9]: ≤ 12.5 µM; MERS-CoV replication (MERS-CoV): did not inhibit MERS-CoV replication; Cell viability (MTT), words (Calu-3 cells): do not impact the viability
N#C[C@@]1(c2ccc3c(N)ncnn23)O[C@H](CO)[C@@H](O)[C@H]1O [GS-441524, reference compound] |  |  |  |  | inhibited virus replication at all concentrations |  |  |  | EC50 [10]: ~0.84 µM
